# Source: patent publication US12655142B2 (Merck Patent GmbH, priority 2019, dated 2026)
# What was measured:
# c-Kit(V654A) = molecular target: T1, c-Kit(V654A) (Homo sapiens, UniProt P10721, V654A); assay: c-Kit(V654A) assay (33P-ATP filter binding kinase assay); type: biochemical; conditions: recombinant human c-Kit aa 544-end V654A, ATP 200 μM
# T1 construct: recombinant human c-Kit, amino acids 544-end containing the V654A mutation; GST (N)
# Procedure, shortened: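 Radiometric filter-binding read-out: substrate 33P incorporation counted by scintillation after P30 filtermat washes in 75 mM phosphoric acid and methanol. Enzyme: N-GST recombinant human c-Kit aa 544-end carrying V654A.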
# [1] = molecular target: T2, GIST430/654 cell line expressing mutated constitutively active cKIT receptor tyrosine kinase (Δ560-576 deletion and V654A point mutation) (Homo sapiens, UniProt P10721, DEL560-576/V654A); assay: Cellular cKIT autophosphorylation (phospho-Y307-cKIT, Luminex bead assay) in GIST430/654 cells; type: cell-based; conditions: compounds 45 min, read-out: GIST 430/654 IC50
# T2 construct: endogenous in cells; host or cells: GIST430/654 cells
# T2 sequence (P10721 with tags, fused parts or gaps DEL560-576/V654A): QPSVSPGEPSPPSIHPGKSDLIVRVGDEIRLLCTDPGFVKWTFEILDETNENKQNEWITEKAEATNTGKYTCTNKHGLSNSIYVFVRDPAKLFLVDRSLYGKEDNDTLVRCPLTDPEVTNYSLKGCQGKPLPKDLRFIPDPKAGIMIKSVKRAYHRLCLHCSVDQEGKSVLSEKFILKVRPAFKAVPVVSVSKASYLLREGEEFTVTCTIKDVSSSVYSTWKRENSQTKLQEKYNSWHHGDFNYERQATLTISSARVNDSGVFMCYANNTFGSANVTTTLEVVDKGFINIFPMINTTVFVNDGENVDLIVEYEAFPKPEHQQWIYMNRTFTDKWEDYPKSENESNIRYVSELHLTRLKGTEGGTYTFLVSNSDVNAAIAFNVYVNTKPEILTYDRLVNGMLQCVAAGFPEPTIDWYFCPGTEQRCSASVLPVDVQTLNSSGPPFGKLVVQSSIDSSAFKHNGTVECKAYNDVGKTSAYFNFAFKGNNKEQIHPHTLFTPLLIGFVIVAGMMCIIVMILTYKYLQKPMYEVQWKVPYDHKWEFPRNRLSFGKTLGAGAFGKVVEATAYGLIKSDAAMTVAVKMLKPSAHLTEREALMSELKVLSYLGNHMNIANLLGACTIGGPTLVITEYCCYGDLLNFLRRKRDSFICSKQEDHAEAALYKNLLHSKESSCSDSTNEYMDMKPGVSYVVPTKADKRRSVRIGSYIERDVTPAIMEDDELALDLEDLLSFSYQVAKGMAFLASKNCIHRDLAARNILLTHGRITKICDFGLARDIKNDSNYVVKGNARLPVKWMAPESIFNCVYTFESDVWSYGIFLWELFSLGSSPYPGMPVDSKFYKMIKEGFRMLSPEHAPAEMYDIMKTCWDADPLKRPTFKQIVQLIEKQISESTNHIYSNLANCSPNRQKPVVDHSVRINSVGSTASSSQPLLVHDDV
# Procedure, shortened: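 Phospho-Y307 cKIT in lysates was measured on a Luminex bead assay, with total-cKIT capture overnight at 4 °C and phosphospecific plus PE secondary detection. Cells had 45 min exposure to a compound dilution series the day after plating: GIST430 (Δ560-576) or GIST430/654 (Δ560-576/V654A, grown with 100 nM imatinib). IC50 values are relative to 0.3% DMSO-treated cells.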
# [2] = Determination of Efflux-Ratio (ER) in Caco-2 cells; conditions: human, Caco-2, pH 7.4
# Procedure: Determination of Efflux-Ratio (ER) in Caco-2 Cells
# The efflux ratio of the test compounds was determined in Caco-2 human epithelial colorectal adenocarcinoma cell line (TC7 clone) using calculation of apparent permeability (Papp). Cell monolayers were differentiated in vitro for 14 days before the experiment. Subsequently, the test compound (in HBSS pH 7.4 at 1 μM final concentration) was applied on the donor side while HBSS buffer (pH 7.4) was added to the receiver wells. […] The plate was then incubated in a 5% CO2 incubator (37° C., 100% humidity). At the end of the 2 hours incubation period, 50 μL sample was removed from both donor and receiver wells and diluted 1:1 with equal volumes of acetonitrile for LC-MS/MS analysis. The LC-MS/MS analysis used a one-point calibration method from a 1 μM standard solution diluted 1:1 with equal volume of acetonitrile (consistent to the test samples).
# The data was used to calculate the apparent permeabilities of the compounds in both apical to basolateral (Papp,AB) and basolateral to apical (Papp,BA) directions at 1 μM concentration in duplicate. The Papp values were calculated from the concentrations in the donor and receiver compartments using the following formula:
# Efflux ratio was calculated according to the following formula:
# T1 sequence (P10721 544-976 V654A): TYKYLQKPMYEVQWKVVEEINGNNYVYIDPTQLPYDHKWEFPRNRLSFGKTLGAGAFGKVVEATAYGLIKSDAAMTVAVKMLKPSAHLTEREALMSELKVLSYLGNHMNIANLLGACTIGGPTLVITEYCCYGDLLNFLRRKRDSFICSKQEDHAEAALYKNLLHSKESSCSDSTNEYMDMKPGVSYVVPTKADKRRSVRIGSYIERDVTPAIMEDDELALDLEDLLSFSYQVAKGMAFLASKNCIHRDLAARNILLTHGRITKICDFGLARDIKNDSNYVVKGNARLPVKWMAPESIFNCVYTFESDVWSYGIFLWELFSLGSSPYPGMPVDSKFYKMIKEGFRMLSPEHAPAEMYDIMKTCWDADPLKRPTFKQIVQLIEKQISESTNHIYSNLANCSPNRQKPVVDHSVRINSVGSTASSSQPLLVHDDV
Compound,IC50 (c-Kit(V654A)),IC50 [1],"efflux ratio at 2 h, 1 μM [2]"
"Cn1cc(-c2ccc(CNc3cc(-c4cnc5cc(OCCN6CC7(COC7)C6)ccn45)ncn3)cc2)cn1 [A114, [4-(1-methyl-1H-pyrazol-4-yl)-benzyl]-(6-{7-[2-(2-oxa-6-aza-spiro[3.3]hept-6-yl)-ethoxy]-imidazo[1,2-a]pyridin-3-yl}-pyrimidin-4-yl)-amine]",9.4 nM,86 nM,15 to 50
"Cn1cc(-c2ccc(CNc3cc(-c4cnc5cc(OCCCO)ccn45)ncn3)cc2)cn1 [A131, 3-(3-{6-[4-(1-methyl-1H-pyrazol-4-yl)-benzylamino]-pyrimidin-4-yl}-imidazo[1,2-a]pyridin-7-yloxy)-propan-1-ol]",7.5 nM,69 nM,< 15
Cn1ncc(-c2ccc(CNc3cc(-c4cnc5cc(OCCCN6CCOCC6)ccn45)ncn3)cc2)n1 [A133],2.6 nM,30 nM,< 15
"Cn1cc(-c2ccc(CNc3cc(-c4cnc5cc(OCCN6CC(F)C6)ccn45)ncn3)cc2)cn1 [A140, 6-{7-[2-(3-fluoroazetidin-1-yl)ethoxy]imidazo[1,2-a]pyridin-3-yl}-N-{[4-(1-methyl-1H-pyrazol-4-yl)phenyl]methyl}pyrimidin-4-amine]",11 nM,26 nM,< 15
"CN1CCN(CCOc2ccn3c(-c4cc(NCc5ccc(-c6cnn(C)c6)cc5)ncn4)cnc3c2)C(=O)C1 [A141, 4-methyl-1-[2-({3-[6-({[4-(1-methyl-1H-pyrazol-4-yl)phenyl]methyl}amino)pyrimidin-4-yl]imidazo[1,2-a]pyridin-7-yl}oxy)ethyl]piperazin-2-one]",15 nM,85 nM,> 50
"CN1CC(COc2ccn3c(-c4cc(NCc5ccc(-c6cnn(C)c6)cc5)ncn4)cnc3c2)C1 [A144, N-{[4-(1-methyl-1H-pyrazol-4-yl)phenyl]methyl}-6-{7-[(1-methylazetidin-3-yl)methoxy]imidazo[1,2-a]pyridin-3-yl}pyrimidin-4-amine]",5.1 nM,61 nM,> 50
"COc1ccn2c(-c3cc(OCc4ccc(-c5cnn(C)c5)cc4)ncn3)cnc2c1 [A158, 7-methoxy-3-{6-[4-(1-methyl-1H-pyrazol-4-yl)-benzyloxy]-pyrimidin-4-yl}-imidazo[1,2-a]pyridine]",13 nM,140 nM,< 15
Cn1ncc(-c2ccc(CNc3cc(-c4cnc5cc(OCC6CCNCC6)ccn45)ncn3)cc2)n1 [A165],2 nM,57 nM,> 50
"Cn1cc(-c2ccc(CNc3cc(-c4cnc5cc(OCC6CN(C7COC7)C6)ccn45)ncn3)cc2)cn1 [A183, N-{[4-(1-methyl-1H-pyrazol-4-yl)phenyl]methyl}-6-(7-{[1-(oxetan-3-yl)azetidin-3-yl]methoxy}imidazo[1,2-a]pyridin-3-yl)pyrimidin-4-amine]",7.7 nM,27 nM,< 15
"Cn1cc(-c2ccc(CNc3cc(-c4cnc5cc(OCCCN6CCN(C7COC7)CC6)ccn45)ncn3)cc2)cn1 [A184, [4-(1-methyl-1H-pyrazol-4-yl)-benzyl]-(6-{7-[3-(4-oxetan-3-yl-piperazin-1-yl)-propoxy]-imidazo[1,2-a]pyridin-3-yl}-pyrimidin-4-yl)-amine]",20 nM,76 nM,< 15
"Cn1ncc(-c2ccc(CNc3cc(-c4cnc5cc(OCC6CCN(C7CC7)CC6)ccn45)ncn3)cc2)n1 [A186, {6-[7-(1-cyclopropyl-piperidin-4-ylmethoxy)-imidazo[1,2-a]pyridin-3-yl]-pyrimidin-4-yl}-[4-(2-methyl-2H-[1,2,3]triazol-4-yl)-benzyl]-amine]",7 nM,80 nM,< 15

# Results, then the compound that gave them:
IC50 (c-Kit(V654A)),IC50 [1],"efflux ratio at 2 h, 1 μM [2]",Compound
7 nM,170 nM,15 to 50,"Cn1cc(-c2ccc(CNc3cc(-c4cnc5cc(OCC(C)(C)N)ccn45)ncn3)cc2)cn1 [A104, {6-[7-(2-amino-2-methyl-propoxy)-imidazo[1,2-a]pyridin-3-yl]-pyrimidin-4-yl}-[4-(1-methyl-1H-pyrazol-4-yl)-benzyl]-amine]"
4 nM,120 nM,> 50,"Cn1cc(-c2ccc(CNc3cc(-c4cnc5cc(OCC6CCNCC6)ccn45)ncn3)cc2)cn1 [A166, [4-(1-methyl-1H-pyrazol-4-yl)-benzyl]-{6-[7-(piperidin-4-ylmethoxy)-imidazo[1,2-a]pyridin-3-yl]-pyrimidin-4-yl}-amine]"
7.5 nM,500 nM,> 50,"Cn1cc(-c2ccc(CNc3cc(-c4cnc5cc(OCC6CNC6)ccn45)ncn3)cc2)cn1 [A167, 6-{7-[(azetidin-3-yl)methoxy]imidazo[1,2-a]pyridin-3-yl}-N-{[4-(1-methyl-1H-pyrazol-4-yl)phenyl]methyl}pyrimidin-4-amine]"
9.8 nM,480 nM,> 50,"Cn1cc(-c2ccc(CNc3cc(-c4cnc5cc(OCCC6CCNC6)ccn45)ncn3)cc2)cn1 (stereo not drawn) [A175, [4-(1-methyl-1H-pyrazol-4-yl)-benzyl]-{6-[7-(2-pyrrolidin-3-yl-ethoxy)-imidazo[1,2-a]pyridin-3-yl]-pyrimidin-4-yl}-amine]"
3.2 nM,84 nM,> 50,"Cn1ncc(-c2ccc(CNc3cc(-c4cnc5cc(OCCC6CCNC6)ccn45)ncn3)cc2)n1 (stereo not drawn) [A176, [4-(2-methyl-2H-[1,2,3]triazol-4-yl)-benzyl]-{6-[7-(2-pyrrolidin-3-yl-ethoxy)-imidazo[1,2-a]pyridin-3-yl]-pyrimidin-4-yl}-amine]"
3.1 nM,24 nM,> 50,"Cn1ncc(-c2ccc(CNc3cc(-c4cnc5cc(N6CCC(CCO)C6)ccn45)ncn3)cc2)n1 (stereo not drawn) [A179, 2-[1-(3-{6-[4-(2-methyl-2H-[1,2,3]triazol-4-yl)-benzylamino]-pyrimidin-4-yl}-imidazo[1,2-a]pyridin-7-yl)-pyrrolidin-3-yl]-ethanol]"
9.8 nM,160 nM,< 15,"Cn1ncc(-c2ccc(CNc3cc(-c4cnc5cc(OCC6CCN(CC#N)CC6)ccn45)ncn3)cc2)n1 [A189, [4-(3-{6-[4-(2-methyl-2H-[1,2,3]triazol-4-yl)-benzylamino]-pyrimidin-4-yl}-imidazo[1,2-a]pyridin-7-yloxymethyl)-piperidin-1-yl]-acetonitrile]"
28 nM,67 nM,< 15,"Cn1cc(-c2ccc(CNc3cc(-c4cnc5cc(OCC6CCN(CC(F)F)CC6)ccn45)ncn3)cc2)cn1 [A192, (6-{7-[1-(2,2-difluoro-ethyl)-piperidin-4-ylmethoxy]-imidazo[1,2-a]pyridin-3-yl}-pyrimidin-4-yl)-[4-(1-methyl-1H-pyrazol-4-yl)-benzyl]-amine]"
6.1 nM,92 nM,> 50,"Cn1cc(-c2ccc(CNc3cc(-c4cnc5cc(OCCN6CC[S+]([O-])CC6)ccn45)ncn3)cc2)cn1 [A194, [4-(1-methyl-1H-pyrazol-4-yl)-benzyl]-(6-{7-[2-(1-oxo-1|4-thiomorpholin-4-yl)-ethoxy]-imidazo[1,2-a]pyridin-3-yl}-pyrimidin-4-yl)-amine]"
